{"source": "paper PMC7150870", "about": "(Toxins, 2020)", "key": {"[1]": {"tested_on": "HEK293T", "assay_type": "cell-based, human"}, "[2]": {"tested_on": "HepG2, Caco-2, RAW 264.7, and HEK 293T cells"}, "[3]": {"tested_on": "HEK 293T cells"}, "[4]": {"tested_on": "Caco-2 cells"}, "[5]": {"tested_on": "cells", "details": "cited from earlier work"}, "[6]": {"tested_on": "human colon adenocarcinoma HT29 cells", "details": "cited from earlier work"}, "[7]": {"tested_on": "RAW 264.7", "assay_type": "cell-based, mouse"}, "[8]": {"tested_on": "Caco-2", "assay_type": "cell-based, human"}, "[9]": {"tested_on": "HepG2", "assay_type": "cell-based, human"}, "[10]": {"tested_on": "HEK293T", "assay_type": "cell-based, human", "remark": "listed apart in the source"}, "[11]": {"tested_on": "HEK293T cells", "assay_type": "cell-based, human", "details": "read-out: IC50 halving the HEK293T cells viability"}, "[12]": {"tested_on": "HEK 293T cells", "assay_type": "cell-based, human"}, "[13]": {"tested_on": "epithelial cell layers", "details": "cited from earlier work"}, "[14]": {"details": "human (Caco-2), mouse (RAW 264.7)"}}, "note": "Like-named read-outs stand apart in the source and are kept apart here. Marks after values point to notes of the source that are not given here."}
{"smiles": "COc1cc(O)c2c(=O)oc3cc(O)cc(C)c3c2c1", "note": "[AME, alternariol-9-methyl ether]", "values": [{"measurement": "combination index, mixture of DAS (6.58 nM)", "setting": "[1]", "result": "0.90 ± 0.05", "unit": "Add"}, {"measurement": "combination index, mixture of HT-2 (21.22 nM)", "setting": "[1]", "result": "0.92 ± 0.06", "unit": "Add"}, {"measurement": "combination index, mixture of T-2 (3.87 nM)", "setting": "[1]", "result": "0.97 ± 0.07", "unit": "Add"}, {"measurement": "type of interaction, mixture of DAS (6.58 nM)", "setting": "[1]", "result": "0.90 ± 0.05 Add (key: Syn: Combination index (CI) < 0.9; Add: 0.9 ≤ CI ≤ 1; Ant: CI > 1)"}, {"measurement": "type of interaction, mixture of HT-2 (21.22 nM)", "setting": "[1]", "result": "0.92 ± 0.06 Add (key: Syn: Combination index (CI) < 0.9; Add: 0.9 ≤ CI ≤ 1; Ant: CI > 1)"}, {"measurement": "type of interaction, mixture of T-2 (3.87 nM)", "setting": "[1]", "result": "0.97 ± 0.07 Add (key: Syn: Combination index (CI) < 0.9; Add: 0.9 ≤ CI ≤ 1; Ant: CI > 1)"}, {"measurement": "IC50", "setting": "[2]", "result": "> 50", "unit": "nM"}, {"measurement": "percentage of DNA in comet tail with respect to the negative control", "setting": "[3]", "result": "significantly increased"}, {"measurement": "comet tails (percentage of DNA)", "setting": "[3]; 25 µM, 24 h", "result": "~42", "unit": "%"}, {"measurement": "metabolites found by non-target U-HPLC-MS analysis", "setting": "[4]", "result": "3-O-glucuronide, 7-O-glucuronide, and 3-O-sulfate"}, {"measurement": "transepithelial transport, Apical Medium", "setting": "[4]", "result": "35.92 ± 1.53^c %"}, {"measurement": "transepithelial transport, Basolateral Medium", "setting": "[4]", "result": "17.68 ± 0.86^bcd %"}, {"measurement": "transepithelial transport, Caco-2 Cells", "setting": "[4]", "result": "0.49 ± 0.02^ab %"}, {"measurement": "transepithelial transport, Raw 264.7 Cells", "setting": "[4]", "result": "0.01 ± 0.00^ab %"}, {"measurement": "transepithelial transport, Total", "setting": "[4]", "result": "53.94 ± 1.59^bc %"}, {"measurement": "concentration with statistically significant decrease in viability of cells", "setting": "[5]", "result": 25, "unit": "µM"}, {"measurement": "concentrations significantly increasing the rate of DNA breaks", "setting": "[6]", "result": "≥ 1000", "unit": "nM"}]}
{"smiles": "CC(=O)OC[C@]12C[C@H](OC(=O)CC(C)C)C(C)=C[C@H]1O[C@@H]1[C@H](O)[C@@H](O)[C@@]2(C)[C@]12CO2", "note": "[HT-2, HT-2 toxin]", "values": [{"measurement": "IC50", "setting": "[7]", "result": "5.07 ± 0.46", "unit": "nM"}, {"measurement": "IC50", "setting": "[8]", "result": "44.2 ± 2.26", "unit": "nM"}, {"measurement": "IC50", "setting": "[9]", "result": "47.4 ± 1.29", "unit": "nM"}, {"measurement": "IC50", "setting": "[10]", "result": "21.2 ± 1.6", "unit": "nM"}, {"measurement": "IC50", "setting": "[11]", "result": 30, "unit": "nM"}, {"measurement": "combination index, mixture of DAS (6.58 nM)", "setting": "[1]", "result": "0.54 ± 0.03", "unit": "Syn"}, {"measurement": "combination index, mixture of T-2 (3.87 nM)", "setting": "[1]", "result": "0.67 ± 0.04", "unit": "Syn"}, {"measurement": "type of interaction, mixture of DAS (6.58 nM)", "setting": "[1]", "result": "0.54 ± 0.03 Syn (key: Syn: Combination index (CI) < 0.9; Add: 0.9 ≤ CI ≤ 1; Ant: CI > 1)"}, {"measurement": "type of interaction, mixture of T-2 (3.87 nM)", "setting": "[1]", "result": "0.67 ± 0.04 Syn (key: Syn: Combination index (CI) < 0.9; Add: 0.9 ≤ CI ≤ 1; Ant: CI > 1)"}, {"measurement": "combination index, silibinin 1.7 µM", "setting": "[12]", "result": "1.10 ± 0.02", "unit": "Add"}, {"measurement": "combination index, silibinin 3.4 µM", "setting": "[12]", "result": "1.27 ± 0.11", "unit": "Ant"}, {"measurement": "combination index, silibinin 6.8 µM", "setting": "[12]", "result": "1.57 ± 0.15", "unit": "Ant"}, {"measurement": "combination index, silibinin 13.6 µM", "setting": "[12]", "result": "1.25 ± 0.08", "unit": "Ant"}, {"measurement": "combination index, silibinin 27.3 µM", "setting": "[12]", "result": "1.06 ± 0.07", "unit": "Add"}, {"measurement": "combination index, silibinin 54.5 µM", "setting": "[12]", "result": "1.03 ± 0.04", "unit": "Add"}, {"measurement": "combination index, silibinin 109.00 µM", "setting": "[12]", "result": "1.08 ± 0.03", "unit": "Add"}, {"measurement": "type of interaction, silibinin 1.7 µM", "setting": "[12]", "result": "1.10 ± 0.02 Add (key: Syn: Combination index (CI) < 0.9; Add: 0.9 ≤ CI ≤ 1; Ant: CI > 1)"}, {"measurement": "type of interaction, silibinin 3.4 µM", "setting": "[12]", "result": "1.27 ± 0.11 Ant (key: Syn: Combination index (CI) < 0.9; Add: 0.9 ≤ CI ≤ 1; Ant: CI > 1)"}, {"measurement": "type of interaction, silibinin 6.8 µM", "setting": "[12]", "result": "1.57 ± 0.15 Ant (key: Syn: Combination index (CI) < 0.9; Add: 0.9 ≤ CI ≤ 1; Ant: CI > 1)"}, {"measurement": "type of interaction, silibinin 13.6 µM", "setting": "[12]", "result": "1.25 ± 0.08 Ant (key: Syn: Combination index (CI) < 0.9; Add: 0.9 ≤ CI ≤ 1; Ant: CI > 1)"}, {"measurement": "type of interaction, silibinin 27.3 µM", "setting": "[12]", "result": "1.06 ± 0.07 Add (key: Syn: Combination index (CI) < 0.9; Add: 0.9 ≤ CI ≤ 1; Ant: CI > 1)"}, {"measurement": "type of interaction, silibinin 54.5 µM", "setting": "[12]", "result": "1.03 ± 0.04 Add (key: Syn: Combination index (CI) < 0.9; Add: 0.9 ≤ CI ≤ 1; Ant: CI > 1)"}, {"measurement": "type of interaction, silibinin 109.00 µM", "setting": "[12]", "result": "1.08 ± 0.03 Add (key: Syn: Combination index (CI) < 0.9; Add: 0.9 ≤ CI ≤ 1; Ant: CI > 1)"}, {"measurement": "IC50", "setting": "[2]; read-out: IC50 range in studied cells", "result": "5.07 to 47.4", "unit": "nM"}, {"measurement": "transepithelial transport, Apical Medium", "setting": "[4]; [14]", "result": "72.63±2.25^f %"}, {"measurement": "transepithelial transport, Basolateral Medium", "setting": "[4]; [14]", "result": "49.18 ± 1.80^g %"}, {"measurement": "transepithelial transport, Caco-2 Cells", "setting": "[4]; [14]", "result": "0.01 ± 0.00^a %"}, {"measurement": "transepithelial transport, Raw 264.7 Cells", "setting": "[4]; [14]", "result": "0.01 ± 0.00^a %"}, {"measurement": "transepithelial transport, Total", "setting": "[4]; [14]", "result": "121.83 ± 1.33^f %"}, {"measurement": "transport through the epithelial cell layers", "setting": "[13]", "result": "≤ 32", "unit": "%"}]}
{"smiles": "CC(C)C[C@@H]1NC(=O)[C@H](C)N(C)C(=O)CNC(=O)/C(=C/c2ccccc2)N(C)C1=O", "note": "[TEN, tentoxin]", "values": [{"measurement": "combination index, mixture of DAS (6.58 nM)", "setting": "[1]", "result": "0.92 ± 0.17", "unit": "Add"}, {"measurement": "combination index, mixture of HT-2 (21.22 nM)", "setting": "[1]", "result": "0.94 ± 0.04", "unit": "Add"}, {"measurement": "combination index, mixture of T-2 (3.87 nM)", "setting": "[1]", "result": "0.92 ± 0.07", "unit": "Add"}, {"measurement": "type of interaction, mixture of DAS (6.58 nM)", "setting": "[1]", "result": "0.92 ± 0.17 Add (key: Syn: Combination index (CI) < 0.9; Add: 0.9 ≤ CI ≤ 1; Ant: CI > 1)"}, {"measurement": "type of interaction, mixture of HT-2 (21.22 nM)", "setting": "[1]", "result": "0.94 ± 0.04 Add (key: Syn: Combination index (CI) < 0.9; Add: 0.9 ≤ CI ≤ 1; Ant: CI > 1)"}, {"measurement": "type of interaction, mixture of T-2 (3.87 nM)", "setting": "[1]", "result": "0.92 ± 0.07 Add (key: Syn: Combination index (CI) < 0.9; Add: 0.9 ≤ CI ≤ 1; Ant: CI > 1)"}, {"measurement": "IC50", "setting": "[2]", "result": "> 50", "unit": "nM"}, {"measurement": "percentage of DNA in comet tail with respect to the negative control", "setting": "[3]", "result": "no significant DNA damage"}, {"measurement": "metabolites found by non-target U-HPLC-MS analysis", "setting": "[4]", "result": "metabolite M1, metabolite M2, and metabolite M3"}, {"measurement": "transepithelial transport, Apical Medium", "setting": "[4]", "result": "28.07 ± 0.62^abc %"}, {"measurement": "transepithelial transport, Basolateral Medium", "setting": "[4]", "result": "7.25 ± 0.72^ab %"}, {"measurement": "transepithelial transport, Caco-2 Cells", "setting": "[4]", "result": "0.00 ± 0.00^a %"}, {"measurement": "transepithelial transport, Raw 264.7 Cells", "setting": "[4]", "result": "0.00 ± 0.00^a %"}, {"measurement": "transepithelial transport, Total", "setting": "[4]", "result": "35.33 ± 0.10^ab %"}]}
